Measured values as given in paper PMC2999418, “Biological Activity and Binding Site Characteristics of the PA1b Entomotoxin on Insects from Different Orders” (Journal of Insect Science, 2007).

Experiments:
[1] = test system: midgut extracts from sensitive or resistant S. oryzae; settings: ref Delobel and Rahbé, personnal communication; cited from earlier work
Excerpt: Stating that the binding activity is widely present, while the toxicity is not, directly implies that other factors strongly influence the toxin toxicity. Pre-binding effects, such as toxin stability in the insect digestive tract, have been commonly described, either for bacterial toxins ([Keller et al. 1996]) or enzyme inhibitors ([Girard et al. 1998]). Although the structural features of PA1b, such as its cystine-knot core ([Jouvensal et al. 2003]), are known to confer high thermal, chemical and proteolytic stability ([Delobel et al. 1998]) the latter point was investigated using commercial ...

[2] = test system: gut extracts from M. brassicae; type: in vitro ADME, Mamestra brassicae; settings: 400 µg M. brassicae gut proteins per assay, 10 µg PA1b, pH 3 to 9, 30°C, one night incubation; C18 HPLC; data not shown
Experimental: PA1b degradation assays were performed using 10 µg of peptide (PA1b isoform mixture) in a final volume of 100 µl buffer. Assays with commercially (SIGMA, www.sigmaaldrich.com) available enzymes were performed in Glycine-NaOH buffer (20 mM pH 9) at 3O°C for proteinase K (E.C. 3.4.21.64), Tris-HCl buffer (20 mM pH 7.5) + EDTA 10 mM at 37°C for pronase E type XIV, MES-NaOH buffer (20 mM pH 6.2) at 25°C for papain (E.C. 3.4.22.2), Tris-HCl buffer (20 mM pH 7.8) at 25°C for chymotrypsin (E.C. 3.4.21.1), and Tris-HCl buffer (20 mM pH 7.6) at 25°C for trypsin (E.C. 3.4.21.4). Assays were done with 10 µg of each enzyme, and control assays were performed with 10 µg of enzymes denaturated by 10 min boiling. Assays with insect extracts were carried out in 20 mM buffers from pH 3 to 9 (Glycine-HCl, pH 3; sodium acetate pH 4-5; MES-NaOH pH 6; Tris-HCl pH 7-8; Glycine NaOH pH 9) at 3O°C. […]
For all assays, after a one night incubation, 150 µl of methanol were added to the mixture and incubated for 60 min at 4°C. […] PA1b peptide isoforms were detected by their absorbance at 210 nm, quantified by the measurement of the peak area and with reference to known quantities of pure peptide isoform used as standards. […]

[3] = target: PA1b binding protein on membrane extracts; test: 125I-PA1b binding (competition) on insect membrane extracts; set-up: species or system Bruchus pisorum; settings: B. pisorum membrane extracts; competition with purified 3741 isoform
Experimental: The isolation of membrane proteins for binding studies was performed as described by Gressent et al. ([2003]). For PA1b degradation tests, insect extracts were prepared as follows, 1 g of insects were ground with a mortar and pestle in liquid nitrogen. The resulting powder was resuspended in 2 ml of extraction buffer (20 mM Tris-HCl pH 8; 0.25 M sucrose; 2 mM MgCl2). The slurry was centrifuged for 2 min at 1000 g, and the supernatant was stored at -2O°C until required. All the operations were performed at 4°C.
The peptidic toxin PA1b-3471 isoform was labelled with I^125 to a specific radioactivity of about 900 Ci.mmor^-1, and then used for binding studies with membrane extracts, according to Gressent et al. ([2003]).
PA1b binding activity was present in all insect species, except for the resistant weevil strains and the pea specific pest Bruchus pisorum, regardless of the sensitivity or insensitivity of these insects to PA1b toxicity, as evaluated from our insect bioassays. […] The relative abundance of the binding sites was also slightly different in this group of species, varying from 10 pmol/mg of protein for T. pretiosum to a maximum of 79 pmol/mg of protein for M. persicae.

[4] = test system: Acyrthosiphon pisum; test: Aphid growth and toxicity assay on artificial diet with toxin; type: in vivo; settings: after six days feeding
Experimental: Growth and toxicity assays were carried out on the aphids Aphis gossypii, Myzus persicae and Acyrthosiphon pisum, Hemiptera, according to Rahbé and Febvay ([1993]). Larvae of the fruit fly Drosophila melanogaster, Diptera, were provided by Dr. Allemand (UMR 5558 CNRS-UCBL, Lyon, France).
All toxicity assays were carried out using a mixture of PA1b isoforms (98% purity by HPLC). All tests were performed on at least 30 insects for assays and for control test (without toxin), except for the three aphid species (50 insects) and for Trichogramma (more than 300 eggs by assays). When adults were used, the insects were synchronized at the imaginal molt. The statistical analyses were performed using the JMP software (SAS, Grégy-sur-Yerres FRA).
Figure 2. Effects of PA1b on three aphid species. Tests were carried out with artificial diet supplemented with the toxin at increasing concentrations, and mortality of the insects was monitored daily (relative larval survival is used in the graph). Circle : A. pisum; Square : M. persicae; Triangle : A. gossypii.

In the case of “ASCNGVCSPFEMPPCGTSACRCIPVGLVIGYCR NPSG (bicyclic or more) [PA1b, plant peptide of 37 amino acids purified from pea (Pisum sativum) seeds; entomotoxic cystine-knot peptide with three disulfide bonds]”, the “activity of midgut extracts on PA1b” value [1] is listed as “do not show any activities on PA1b”, the “recovery of PA1b after incubation with native or heat inactivated gut proteins” value [2] is listed as “no difference” and the Kd / binding [3] is listed as “no binding detectable”. The mortality ([4]; 150 µg.ml^-1 in artificial diet) was 57% and the mortality ([4]; 500 µgml^-1 in artificial diet) was “total”.
